# Measurements taken from PubChem BioAssay AID2060488 (Molecular Pharmacology Branch, DTP, NCI, 2025).
# Test system: 966289-007-R4-J1-PDC complex spheroid viability
# Assay: Anticancer human tumor 966289-007-R4-J1-PDC patient-derived pancreatic adenocarcinoma cell line growth inhibition [GQUAD]
# Details: for IC50: curve of first compound; for viability, T/C: stronger effect = lower value
# How it was run: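 Multi-cell-type spheroids of tumor cells with HUVEC and mesenchymal stem cells, treated with drug combinations. Concentrations descend in half-log steps from near clinical Cmax, or from 10 microM where Cmax is unknown; viability read-out.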
# [1] = second compound 0.0316 µM, first compound 0.0316 µM
# [2] = second compound 0.0316 µM, first compound 0.1 µM
# [3] = second compound 0.0316 µM, first compound 0.316 µM
# [4] = second compound 0.0316 µM, first compound 1 µM
# [5] = second compound 0.0316 µM, first compound 3.16 µM
# [6] = second compound 0.0316 µM, first compound 10 µM
# [7] = second compound 0.1 µM, first compound 0.0316 µM
# [8] = second compound 0.1 µM, first compound 0.1 µM
# [9] = second compound 0.1 µM, first compound 0.316 µM
# [10] = second compound 0.1 µM, first compound 1 µM
# [11] = second compound 0.1 µM, first compound 3.16 µM
# [12] = second compound 0.1 µM, first compound 10 µM
# [13] = second compound 0.316 µM, first compound 0.0316 µM
# [14] = second compound 0.316 µM, first compound 0.1 µM
# [15] = second compound 0.316 µM, first compound 0.316 µM
# [16] = second compound 0.316 µM, first compound 1 µM
# [17] = second compound 0.316 µM, first compound 3.16 µM
# [18] = second compound 0.316 µM, first compound 10 µM
# [19] = second compound 1 µM, first compound 0.0316 µM
# [20] = second compound 1 µM, first compound 0.1 µM
# [21] = second compound 1 µM, first compound 0.316 µM
# [22] = second compound 1 µM, first compound 1 µM
# [23] = second compound 1 µM, first compound 3.16 µM
# [24] = second compound 1 µM, first compound 10 µM
# [25] = second compound 3.16 µM, first compound 0.0316 µM
# [26] = second compound 3.16 µM, first compound 0.1 µM
# [27] = second compound 3.16 µM, first compound 0.316 µM
# [28] = second compound 3.16 µM, first compound 1 µM
# [29] = second compound 3.16 µM, first compound 3.16 µM
# [30] = second compound 3.16 µM, first compound 10 µM
# [31] = second compound 10 µM, first compound 0.0316 µM
# [32] = second compound 10 µM, first compound 0.1 µM
# [33] = second compound 10 µM, first compound 0.316 µM
# [34] = second compound 10 µM, first compound 1 µM
# [35] = second compound 10 µM, first compound 3.16 µM
# [36] = second compound 10 µM, first compound 10 µM
# 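Also: spheroids exposed to the agents for seven days before readout.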
# 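For viability, T/C in this document: percent viability relative to DMSO vehicle control wells taken as 100%.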
compound,measurement,setting,value
O=C(c1cc(Cc2n[nH]c(=O)c3ccccc23)ccc1F)N1CCN(C(=O)C2CC2)CC1 + Cc1cnc(CNC(=O)c2c(=O)c3ccc(N4CCCN(C)CC4)nc3n3c2sc2ccccc23)cn1,IC50,second compound 0.0316 µM,1380 nM
same,IC50,second compound 0.1 µM,< 31.6 nM
same,IC50,second compound 0.316 µM,< 31.6 nM
same,IC50,second compound 1 µM,< 31.6 nM
same,IC50,second compound 3.16 µM,< 31.6 nM
same,IC50,second compound 10 µM,< 31.6 nM
same,"viability, T/C",[1],113%
same,"viability, T/C",[2],106%
same,"viability, T/C",[3],98.9%
same,"viability, T/C",[4],58.9%
same,"viability, T/C",[5],23.3%
same,"viability, T/C",[6],4.08%
same,"viability, T/C",[7],33.8%
same,"viability, T/C",[8],26%
same,"viability, T/C",[9],22%
same,"viability, T/C",[10],17.1%
same,"viability, T/C",[11],8.17%
same,"viability, T/C",[12],4.33%
same,"viability, T/C",[13],13.5%
same,"viability, T/C",[14],11%
same,"viability, T/C",[15],9.09%
same,"viability, T/C",[16],7.84%
same,"viability, T/C",[17],3.87%
same,"viability, T/C",[18],2.13%
same,"viability, T/C",[19],5.15%
same,"viability, T/C",[20],5.03%
same,"viability, T/C",[21],4.87%
same,"viability, T/C",[22],4.62%
same,"viability, T/C",[23],3%
same,"viability, T/C",[24],1.77%
same,"viability, T/C",[25],3.25%
same,"viability, T/C",[26],5.08%
same,"viability, T/C",[27],3.5%
same,"viability, T/C",[28],2.42%
same,"viability, T/C",[29],0.47%
same,"viability, T/C",[30],0.13%
same,"viability, T/C",[31],0.11%
same,"viability, T/C",[32],0.34%
same,"viability, T/C",[33],0.18%
same,"viability, T/C",[34],0.14%
same,"viability, T/C",[35],0.16%
same,"viability, T/C",[36],0.58%
COc1cccc2c1C(=O)c1c(O)c3c(c(O)c1C2=O)CC(O)(C(=O)CO)CC3OC1CC(N)C(O)C(C)O1 (centres undefined) + Cc1[nH]c2ccc(F)cc2c1-c1nc2c3cccnc3c3ncccc3c2[nH]1,IC50,second compound 0.0316 µM,67.3 nM
same,IC50,second compound 0.1 µM,63.6 nM
same,IC50,second compound 0.316 µM,61.1 nM
same,IC50,second compound 1 µM,61.2 nM
same,IC50,second compound 3.16 µM,56.5 nM
same,IC50,second compound 10 µM,52 nM
same,"viability, T/C",[1],114%
same,"viability, T/C",[2],16.4%
same,"viability, T/C",[3],1.91%
same,"viability, T/C",[4],0.7%
same,"viability, T/C",[5],0.21%
same,"viability, T/C",[6],0.6%
same,"viability, T/C",[7],104%
same,"viability, T/C",[8],15.1%
same,"viability, T/C",[9],2.16%
same,"viability, T/C",[10],0.91%
same,"viability, T/C",[11],0.22%
same,"viability, T/C",[12],0.26%
same,"viability, T/C",[13],100%
same,"viability, T/C",[14],12.6%
same,"viability, T/C",[15],2.39%
same,"viability, T/C",[16],0.78%
same,"viability, T/C",[17],0.23%
same,"viability, T/C",[18],0.33%
same,"viability, T/C",[19],97.1%
same,"viability, T/C",[20],14.7%
same,"viability, T/C",[21],2.52%
same,"viability, T/C",[22],0.71%
same,"viability, T/C",[23],0.32%
same,"viability, T/C",[24],0.5%
same,"viability, T/C",[25],87.9%
same,"viability, T/C",[26],12.9%
same,"viability, T/C",[27],2.39%
same,"viability, T/C",[28],0.86%
same,"viability, T/C",[29],0.29%
same,"viability, T/C",[30],0.56%
same,"viability, T/C",[31],79.9%
same,"viability, T/C",[32],10.9%
same,"viability, T/C",[33],1.72%
same,"viability, T/C",[34],0.61%
same,"viability, T/C",[35],0.4%
same,"viability, T/C",[36],0.57%
